Data on four compounds can be found in patent publication US20070098761A1, “Processed fat composition for preventing/ameliorating lifestyle-related diseases” (priority 2003, published 2007).

This data set is described as follows: Shelf stability test (accelerating test at 80° C.). Format: physicochemical. The procedure: A shelf stability test of glabrene, glabridin, glabrol and 4′-O-methylglabridin in the above MCT solution was carried out as an accelerating test at 80° C. The MCT solution was kept at 80° C. in a water bath, and the contents of glabrene, glabridin, glabrol and 4′-O-methylglabridin were determined after storage for 1, 3 and 5 hours respectively. The shelf stability was expressed in terms of the ratio of the content after storage to the content before storage, assuming that the content of each compound before storage was 100%.
A shelf stability test of the hydrophobic licorice extract in Comparative Example 1 was carried out in an analogous manner.
A shelf stability test of the ethanol solution in Comparative Example 2 was carried out in an analogous manner.

Where two headings read alike, the source gives them in different places.

Regarding `CC1(C)C=Cc2c(O)ccc(C3=Cc4ccc(O)cc4OC3)c2O1` [Compound 1, glabrene], the “Shelf stability (ratio of content after storage to content before storage)” value (0 h) was determined as 100%.
`CC1(C)C=Cc2c(ccc3c2OC[C@@H](c2ccc(O)cc2O)C3)O1` [Compound 2, glabridin]: the “Shelf stability (ratio of content after storage to content before storage)” value by setting is: (Ethanol solution (Comparative Example 2), 80° C., after 1 hour) 96%; (Ethanol solution (Comparative Example 2), 80° C., after 3 hour) 94%; (Ethanol solution (Comparative Example 2), 80° C., after 5 hour) 93%; (Ethanol solution (Comparative Example 2), 80° C., at the time of start (set to 100%)) 100%; (Hydrophobic licorice extract (Comparative Example 1), 80° C., after 1 hour) 91%; (Hydrophobic licorice extract (Comparative Example 1), 80° C., after 3 hours) 88%. Besides, the “Shelf stability (ratio of content after storage to content before storage)” value reads like this: (Hydrophobic licorice extract (Comparative Example 1), 80° C., after 5 hours) 86%; (Hydrophobic licorice extract (Comparative Example 1), 80° C., at the time of start (set to 100%)) 100%; (MCT solution (Example 1), 80° C., after 1 hour) 100%; (MCT solution (Example 1), 80° C., after 3 hours) 101%; (MCT solution (Example 1), 80° C., after 5 hours) 97%; (MCT solution (Example 1), 80° C., at the time of start (set to 100%)) 100%. Besides, the “Stability during storage (in words)” value was “unstable” (in the ethanol solution, 80° C.) and “unstable” (in the hydrophobic licorice extract, 80° C.).
Take `CC(C)=CCc1cc([C@@H]2CC(=O)c3ccc(O)c(CC=C(C)C)c3O2)ccc1O` [Compound 3, glabrol]: the “Stability during storage (in words)” value is reported as “stable”. Under “0 h”, the “Shelf stability (ratio of content after storage to content before storage)” value amounted to 100%.
On to `COc1ccc([C@@H]2COc3c(ccc4c3C=CC(C)(C)O4)C2)c(O)c1` [Compound 4, 4′-O-methylglabridin], for which the “Shelf stability (ratio of content after storage to content before storage)” value is 100% and the “Stability during storage (in words)” value is “stable”.
